≈ marks a conversion by molar mass, not a printed value.
Key:
[1] = system: E. faecalis VRE 6; assay: MIC, broth microdilution, vancomycin-resistant E. faecalis VRE 6 (VanA); assay type: cell-based, Enterococcus faecalis; details: for MIC: Enterococcus faecalis VRE 6 (vancomycin-resistant), read-out: MIC; for MIC-fold improvement vs. vancomycin: VRE 6, ratio of MIC of vancomycin and MIC of analogue
Method in brief: (§1)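 Inhibitory concentrations were read by the CLSI broth microdilution procedure, with water and sterile broth as controls. One experiment added vancomycin (10 μM final) together with each analogue or reference antibiotic.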

[2] = system: E. faecalis VRE 37; assay: MIC, broth microdilution, vancomycin-resistant E. faecalis VRE 37 (VanA); assay type: cell-based, Enterococcus faecalis; details: for MIC: Enterococcus faecalis VRE 37 (vancomycin-resistant), read-out: MIC; for MIC-fold improvement vs. vancomycin: VRE 37, ratio of MIC of vancomycin and MIC of analogue
Method in brief: as §1

[3] = system: E. faecalis VSE 1; assay: MIC, broth microdilution, vancomycin-sensitive E. faecalis (VSE 1); assay type: cell-based, Enterococcus faecalis; details: for MIC: Enterococcus faecalis VSE 1 (vancomycin-sensitive), read-out: MIC; for MIC-fold improvement vs. vancomycin: VSE 1, ratio of MIC of vancomycin and MIC of analogue
Method in brief: as §1

[4] = system: L1210, CEM and HeLa cell lines; assay: Cytostatic activity, average or summary over L1210, CEM and HeLa; assay type: cell-based; details: average of L1210, CEM and HeLa; read-out: Toxicity (IC50) Average
Method in brief: (§2)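 Coulter counter cell counts after 37°C culture with compound; IC50 = concentration giving 50% growth inhibition vs negative control. Incubation: L1210 2 d, CEM 3 d, HeLa 4 d. Suspension density before mixing with an equal volume of dilution: 300,000–500,000 cells/mL.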

[5] = system: S. aureus VRSA; assay: MIC, broth microdilution, vancomycin-resistant S. aureus (VRSA); assay type: cell-based, Staphylococcus aureus; details: for MIC: Staphylococcus aureus VRSA, read-out: MIC; for MIC-fold improvement vs. vancomycin: VRSA, ratio of MIC of vancomycin and MIC of analogue
Method in brief: as §1

[6] = system: S. aureus VSSA (ATCC 6538); assay: MIC, broth microdilution, vancomycin-sensitive S. aureus (VSSA/MSSA, ATCC 6538); assay type: cell-based, Staphylococcus aureus; details: for MIC: Staphylococcus aureus VSSA, read-out: MIC; for MIC-fold improvement vs. vancomycin: VSSA, ratio of MIC of vancomycin and MIC of analogue
Method in brief: as §1

[7] = system: human T-lymphocyte (CEM) cells; assay: Cytostatic activity, CEM cell proliferation; assay type: cell-based; details: mean ± SD of three experiments; highest concentration tested 250 µM; 3 days; read-out: Toxicity (IC50) CEM
Method in brief: as §2

[8] = system: MRSA KS1; assay: MIC, broth microdilution, MRSA KS1; assay type: cell-based, Staphylococcus aureus; details: for MIC-fold improvement vs. vancomycin: MRSA KS1, ratio of MIC of vancomycin and MIC of analogue; for MIC: Staphylococcus aureus MRSA KS1, read-out: MIC
Method in brief: as §1

[9] = system: S. aureus VISA/HIP5827; assay: MIC, broth microdilution, vancomycin-intermediate S. aureus VISA HIP5827; assay type: cell-based, Staphylococcus aureus; details: for MIC: Staphylococcus aureus VISA/HIP5827, read-out: MIC; for MIC-fold improvement vs. vancomycin: VISA/HIP5827, ratio of MIC of vancomycin and MIC of analogue
Method in brief: as §1

[10] = system: human cervix carcinoma (HeLa) cells; assay: Cytostatic activity, HeLa cell proliferation; assay type: cell-based; details: mean ± SD of three experiments; highest concentration tested 250 µM; 4 days; read-out: Toxicity (IC50) HeLa
Method in brief: as §2

[11] = system: E. faecalis VRE 29; assay: MIC, broth microdilution, vancomycin-resistant E. faecalis VRE 29 (VanA); assay type: cell-based, Enterococcus faecalis; details: for MIC: Enterococcus faecalis VRE 29 (vancomycin-resistant), read-out: MIC; for MIC-fold improvement vs. vancomycin: VRE 29, ratio of MIC of vancomycin and MIC of analogue
Method in brief: as §1

[12] = system: Murine leukemia (L1210) cells; assay: Cytostatic activity, L1210 cell proliferation; assay type: cell-based; details: mean ± SD of three experiments; highest concentration tested 250 µM; 2 days; read-out: Toxicity (IC50) L1210
Method in brief: as §2

[13] = system: E. faecalis VRE 53; assay: MIC, broth microdilution, vancomycin-resistant E. faecalis VRE 53 (VanA); assay type: cell-based, Enterococcus faecalis; details: for MIC: Enterococcus faecalis VRE 53 (vancomycin-resistant), read-out: MIC; for MIC-fold improvement vs. vancomycin: VRE 53, ratio of MIC of vancomycin and MIC of analogue
Method in brief: as §1

[14] = system: MRSA KS89; assay: MIC, broth microdilution, MRSA KS89; assay type: cell-based, Staphylococcus aureus; details: for MIC-fold improvement vs. vancomycin: MRSA KS8, ratio of MIC of vancomycin and MIC of analogue; for MIC: Staphylococcus aureus MRSA KS8, read-out: MIC
Method in brief: as §1

[15] = system: MRSA KS6; assay: MIC, broth microdilution, MRSA KS6; assay type: cell-based, Staphylococcus aureus; details: for MIC-fold improvement vs. vancomycin: MRSA KS6, ratio of MIC of vancomycin and MIC of analogue; for MIC: Staphylococcus aureus MRSA KS6, read-out: MIC
Method in brief: as §1

[16] = system: MRSA KS2; assay: MIC, broth microdilution, MRSA KS2; assay type: cell-based, Staphylococcus aureus; details: for MIC-fold improvement vs. vancomycin: MRSA KS2, ratio of MIC of vancomycin and MIC of analogue; for MIC: Staphylococcus aureus MRSA KS2, read-out: MIC
Method in brief: as §1

| Compound | MIC [1] | MIC-fold improvement vs. vancomycin [1] | MIC [2] | MIC [3] | MIC-fold improvement vs. vancomycin [3] | IC50 [4] | MIC [5] | MIC-fold improvement vs. vancomycin [5] | MIC [6] | MIC-fold improvement vs. vancomycin [6] | IC50 [7] | MIC-fold improvement vs. vancomycin [8] | MIC [8] | MIC [9] | MIC-fold improvement vs. vancomycin [9] | IC50 [10] | MIC [11] | MIC-fold improvement vs. vancomycin [11] | IC50 [12] | MIC [13] | other results |
| --- | --- | --- | --- | --- | --- | --- | --- | --- | --- | --- | --- | --- | --- | --- | --- | --- | --- | --- | --- | --- | --- |
| CNC(CC(C)C)C(=O)NC1C(=O)NC(CC(N)=O)C(=O)NC2C(=O)NC3C(=O)NC(C(=O)NC(C(=O)NCC(=O)Nc4ccc(C#CC5CCCC5)cc4)c4cc(O)cc(O)c4-c4cc3ccc4O)C(O)c3ccc(c(Cl)c3)Oc3cc2cc(c3OC2OC(CO)C(O)C(O)C2OC2CC(C)(N)C(O)C(C)O2)Oc2ccc(cc2Cl)C1O (stereo not drawn) [Vanc-69] | 3.13 µM (≈ 5.24 µg/mL) | 64 | 6.25 µM (≈ 10.5 µg/mL) | 0.78 µM (≈ 1.31 µg/mL) | 2 | 90 µM | 1.56 µM (≈ 2.61 µg/mL) | 64 | 0.78 µM (≈ 1.31 µg/mL) | 1 | 29 µM | 1 | 0.78 µM (≈ 1.31 µg/mL) | 0.78 µM (≈ 1.31 µg/mL) | 8 | 55 ± 37 µM | 6.25 µM (≈ 10.5 µg/mL) | 64 | 185 ± 93 µM | 6.25 µM (≈ 10.5 µg/mL) | MIC-fold improvement vs. vancomycin [2]: 64; MIC-fold improvement vs. vancomycin [13]: 64; MIC-fold improvement vs. vancomycin [14]: 4; MIC [14]: 0.20 µM (≈ 0.335 µg/mL); MIC-fold improvement vs. vancomycin [15]: 4; MIC [15]: 0.20 µM (≈ 0.335 µg/mL); MIC-fold improvement vs. vancomycin [16]: 4; MIC [16]: 0.20 µM (≈ 0.335 µg/mL) |
| CN[C@H](CC(C)C)C(=O)N[C@H]1C(=O)N[C@@H](CC(N)=O)C(=O)N[C@H]2C(=O)N[C@H]3C(=O)N[C@H](C(=O)N[C@H](C(=O)NCC(=O)Nc4cc(C)cc(C)c4)c4cc(O)cc(O)c4-c4cc3ccc4O)[C@H](O)c3ccc(c(Cl)c3)Oc3cc2cc(c3O[C@@H]2O[C@H](CO)[C@@H](O)[C@H](O)[C@H]2O[C@H]2C[C@](C)(N)[C@H](O)[C@H](C)O2)Oc2ccc(cc2Cl)[C@H]1O [Vanc-11] | 3.13 µM (≈ 5.04 µg/mL) | 64 | 12.5 µM (≈ 20.1 µg/mL) | 0.39 µM (≈ 0.628 µg/mL) | 4 | 178 µM | 12.5 µM (≈ 20.1 µg/mL) | 8 | 0.78 µM (≈ 1.26 µg/mL) | 1 | 196 ± 15 µM | 1 | 0.78 µM (≈ 1.26 µg/mL) | 0.78 µM (≈ 1.26 µg/mL) | 8 | 87 ± 9 µM | 6.25 µM (≈ 10.1 µg/mL) | 32 | > 250 µM | 12.5 µM (≈ 20.1 µg/mL) | MIC-fold improvement vs. vancomycin [2]: 64; MIC-fold improvement vs. vancomycin [13]: 32; MIC-fold improvement vs. vancomycin [14]: 2; MIC [14]: 0.39 µM (≈ 0.628 µg/mL); MIC-fold improvement vs. vancomycin [15]: 2; MIC [15]: 0.39 µM (≈ 0.628 µg/mL); MIC-fold improvement vs. vancomycin [16]: 1; MIC [16]: 0.78 µM (≈ 1.26 µg/mL) |
| CN[C@H](CC(C)C)C(=O)N[C@H]1C(=O)N[C@@H](CC(N)=O)C(=O)N[C@H]2C(=O)N[C@H]3C(=O)N[C@H](C(=O)N[C@H](C(=O)NCC(=O)Nc4cccc(F)c4)c4cc(O)cc(O)c4-c4cc3ccc4O)[C@H](O)c3ccc(c(Cl)c3)Oc3cc2cc(c3O[C@@H]2O[C@H](CO)[C@@H](O)[C@H](O)[C@H]2O[C@H]2C[C@](C)(N)[C@H](O)[C@H](C)O2)Oc2ccc(cc2Cl)[C@H]1O [Vanc-10] | 6.25 µM (≈ 10 µg/mL) | 32 | 12.5 µM (≈ 20 µg/mL) | 0.78 µM (≈ 1.25 µg/mL) | 2 | 238 µM | 12.5 µM (≈ 20 µg/mL) | 8 | 0.78 µM (≈ 1.25 µg/mL) | 1 | > 250 µM | 2 | 0.39 µM (≈ 0.624 µg/mL) | 0.78 µM (≈ 1.25 µg/mL) | 8 | 214 ± 51 µM | 12.5 µM (≈ 20 µg/mL) | 32 | > 250 µM | 12.5 µM (≈ 20 µg/mL) | MIC-fold improvement vs. vancomycin [2]: 64; MIC-fold improvement vs. vancomycin [13]: 32; MIC-fold improvement vs. vancomycin [14]: 2; MIC [14]: 0.39 µM (≈ 0.624 µg/mL); MIC-fold improvement vs. vancomycin [15]: 1; MIC [15]: 0.78 µM (≈ 1.25 µg/mL); MIC-fold improvement vs. vancomycin [16]: 2; MIC [16]: 0.39 µM (≈ 0.624 µg/mL) |
| CN[C@H](CC(C)C)C(=O)N[C@H]1C(=O)N[C@@H](CC(N)=O)C(=O)N[C@H]2C(=O)N[C@H]3C(=O)N[C@H](C(=O)N[C@H](C(=O)NCC(=O)Nc4ccccc4)c4cc(O)cc(O)c4-c4cc3ccc4O)[C@H](O)c3ccc(c(Cl)c3)Oc3cc2cc(c3O[C@@H]2O[C@H](CO)[C@@H](O)[C@H](O)[C@H]2O[C@H]2C[C@](C)(N)[C@H](O)[C@H](C)O2)Oc2ccc(cc2Cl)[C@H]1O [Vanc-3] | 12.5 µM (≈ 19.8 µg/mL) | 16 | 25 µM (≈ 39.5 µg/mL) | 0.78 µM (≈ 1.23 µg/mL) | 2 | > 250 µM | 25 µM (≈ 39.5 µg/mL) | 4 | 0.78 µM (≈ 1.23 µg/mL) | 1 | > 250 µM | 1 | 0.78 µM (≈ 1.23 µg/mL) | 0.78 µM (≈ 1.23 µg/mL) | 8 | > 250 µM | 25 µM (≈ 39.5 µg/mL) | 16 | > 250 µM | 25 µM (≈ 39.5 µg/mL) | MIC-fold improvement vs. vancomycin [13]: 16; MIC-fold improvement vs. vancomycin [14]: 1; MIC [14]: 0.78 µM (≈ 1.23 µg/mL); MIC-fold improvement vs. vancomycin [15]: 1; MIC [15]: 0.78 µM (≈ 1.23 µg/mL); MIC-fold improvement vs. vancomycin [16]: 1; MIC [16]: 0.78 µM (≈ 1.23 µg/mL) |

— publication PMC6001238, “Iterative Chemical Engineering of Vancomycin Leads to Novel Vancomycin Analogs With a High in Vitro Therapeutic Index” (Frontiers in Microbiology, 2018)
